Data taken from ChEMBL document CHEMBL1201862, “PubChem BioAssay data set” (2004).
One block for each compound: values may come before it. Active and inactive are the calls of the source.

How the values were obtained:
Galanin receptor type 3 = target: T1, Galanin receptor type 3 (Homo sapiens, UniProt O60755); assay: Fluorescence-based cell-based primary high throughput dose response assay to identify antagonists of the Galanin Receptor 3 (GalR3).; type: functional
T1 sequence (O60755 whole entry): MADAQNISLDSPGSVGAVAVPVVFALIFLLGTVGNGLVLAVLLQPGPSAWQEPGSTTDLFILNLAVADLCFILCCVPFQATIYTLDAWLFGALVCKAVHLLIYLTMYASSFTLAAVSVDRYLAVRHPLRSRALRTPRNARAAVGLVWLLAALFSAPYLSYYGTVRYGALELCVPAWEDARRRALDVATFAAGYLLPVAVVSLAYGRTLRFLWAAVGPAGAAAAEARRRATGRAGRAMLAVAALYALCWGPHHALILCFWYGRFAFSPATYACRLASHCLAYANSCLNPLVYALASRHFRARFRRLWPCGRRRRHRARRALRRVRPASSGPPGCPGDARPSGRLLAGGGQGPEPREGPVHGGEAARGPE

cells = type: functional, cell-based; conditions: HEK-CNG
[1] = target: SWI/SNF-related matrix-associated actin-dependent regulator of chromatin subfamily A member 2 (Homo sapiens, UniProt P51531); assay: Luminescence-based cell-based high throughput dose response assay to identify activators of the function of SWI/SNF related, matrix associated, actin dependent regulator of chromatin, subfamily a, member 2 (SMARCA2, BRM).; type: functional
[2] = Counterscreen for activators of the function of SWI/SNF related, matrix associated, actin dependent regulator of chromatin, subfamily a, member 2 (SMARCA2, BRM): Luminescence-based cell-based high throughput dose response assay to identify non-selective compounds using the VP16 reporter assay.; type: functional
INS1 = assay: beta cell apoptosis inhibitors, cytokine rescue, dose response, luminescence, retest (AID 449756); type: functional, cell-based; conditions: Rattus norvegicus;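 also: cell death triggered by IL-1 beta plus TNF-alpha plus IFN-gamma mixture; protective hits raise ATP signal compared with cytokine alone wells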
[3] = off-target signal loss in HeLa-CEM21 co-culture – HeLa F-luc CTL cells, cherry-picked, counter-screen for HIV-1 Env fusion inhibitor project, dose response (AID 652040); type: functional, cell-based;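 also: potency for signal decrease marking cytotoxic or nonspecific inhibition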
[4] = inhibitors of clade B AD8 Env fusion, dose response, cell-based, cherry-pick (AID 652062); type: functional;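 also: luciferase signal from cell-cell fusion driven by HIV-1 clade B AD8 Env; potency is for inhibitors of fusion seen as a drop in luminescence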
[5] = growth suppression of PTEN-null colon cells, dose response, cell-based, HCT116 PTEN knockout (AID 1047); type: functional;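 also: HCT116 colon tumor cells with PTEN knocked out; cells exposed to compound for 60 hours before readout; potency for loss of cell viability measured by luminescence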
[6] = CEM21 lymphoblast cell cytotoxicity, dose response, cytotoxicity control for viral fusion inhibitor project, CellTiter-Glo luminescence, cherry-picked (AID 652042); type: functional, cell-based;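 also: potency for signal decrease meaning cytotoxicity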
[7] = C. albicans growth with fluconazole, confirmation, fluorescence, retest (AID 2467); type: functional, cell-based
[8] = NIH-3T3 fibroblast cytotoxicity, dose response, cytotoxicity control, cell-based, fluorescence, Alamar Blue, secondary assay (AID 2327); type: functional;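 also: NIH-3T3 mouse fibroblasts cultured with fluconazole at 8 µg/mL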
[9] = inhibitors of HIV Env-driven cell fusion, dose response, cherry-pick (AID 652057); type: functional, cell-based
[10] = ZM109 Env clade C HIV-1 fusion inhibitors, dose response, HeLa effector, CEM target cells, luciferase, cherry-pick (AID 652058); type: functional, cell-based
[11] = growth suppression of beta-catenin-knockout colon cells, dose response, cell-based, HCT116, human colon tumor (AID 1045); type: functional;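 also: HCT116 colon tumor cells with beta catenin knocked out; cells exposed to compound for 60 hours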
[12] = target: Photoreceptor-specific nuclear receptor (Homo sapiens, UniProt Q9Y5X4); type: functional, cell-based;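 also: CHO-S cells with Gal4-NCOR and VP16-NR2E3 two-hybrid luciferase reporter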
[13] = ARNT/TACC3 interaction disruptors, potency, confirmation, biochemical, AlphaScreen, cherry-picked samples (AID 651703); type: functional, Homo sapiens;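 also: His-tagged ARNT PAS-B domain paired with GST-TACC3 E629A dimer coactivator fragment; potency of inhibitors that break up the complex and lower AlphaScreen signal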
Caspase-3 = target: T2, Caspase-3 (Homo sapiens, UniProt P42574); assay: SAR Analysis of small molecule inhibitors of Sentrin-specific proteases (SENPs) using a Caspase-3 Selectivity assay. [Related pubchem assays (depositor defined):AID2540, AID2599, AID434973, AID489001]; type: functional
T2 sequence (P42574 whole entry): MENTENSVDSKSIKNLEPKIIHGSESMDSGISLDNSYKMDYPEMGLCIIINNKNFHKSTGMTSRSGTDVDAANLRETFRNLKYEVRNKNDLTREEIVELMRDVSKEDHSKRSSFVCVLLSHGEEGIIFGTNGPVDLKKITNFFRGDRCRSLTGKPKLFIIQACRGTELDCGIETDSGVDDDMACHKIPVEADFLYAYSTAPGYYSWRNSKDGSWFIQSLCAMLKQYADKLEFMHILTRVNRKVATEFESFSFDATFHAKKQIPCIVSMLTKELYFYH

[14] = target: T3, Sentrin-specific protease 8 (Homo sapiens, UniProt Q96LD8); assay: SENP8 protease inhibitors, SAR follow-up, biochemical, luminescence (AID 504501); type: functional
T3 sequence (Q96LD8 whole entry): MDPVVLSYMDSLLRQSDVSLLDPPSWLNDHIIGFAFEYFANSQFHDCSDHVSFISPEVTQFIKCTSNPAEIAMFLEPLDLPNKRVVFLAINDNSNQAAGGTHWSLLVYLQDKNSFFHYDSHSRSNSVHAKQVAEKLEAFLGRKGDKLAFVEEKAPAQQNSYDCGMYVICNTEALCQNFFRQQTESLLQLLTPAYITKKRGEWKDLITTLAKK

[15] = target: T4, Sentrin-specific protease 7 (Homo sapiens, UniProt Q9BQF6); assay: SENP7 protease inhibitors, SAR follow-up, biochemical, luminescence (AID 504497); type: functional
T4 sequence (Q9BQF6 whole entry): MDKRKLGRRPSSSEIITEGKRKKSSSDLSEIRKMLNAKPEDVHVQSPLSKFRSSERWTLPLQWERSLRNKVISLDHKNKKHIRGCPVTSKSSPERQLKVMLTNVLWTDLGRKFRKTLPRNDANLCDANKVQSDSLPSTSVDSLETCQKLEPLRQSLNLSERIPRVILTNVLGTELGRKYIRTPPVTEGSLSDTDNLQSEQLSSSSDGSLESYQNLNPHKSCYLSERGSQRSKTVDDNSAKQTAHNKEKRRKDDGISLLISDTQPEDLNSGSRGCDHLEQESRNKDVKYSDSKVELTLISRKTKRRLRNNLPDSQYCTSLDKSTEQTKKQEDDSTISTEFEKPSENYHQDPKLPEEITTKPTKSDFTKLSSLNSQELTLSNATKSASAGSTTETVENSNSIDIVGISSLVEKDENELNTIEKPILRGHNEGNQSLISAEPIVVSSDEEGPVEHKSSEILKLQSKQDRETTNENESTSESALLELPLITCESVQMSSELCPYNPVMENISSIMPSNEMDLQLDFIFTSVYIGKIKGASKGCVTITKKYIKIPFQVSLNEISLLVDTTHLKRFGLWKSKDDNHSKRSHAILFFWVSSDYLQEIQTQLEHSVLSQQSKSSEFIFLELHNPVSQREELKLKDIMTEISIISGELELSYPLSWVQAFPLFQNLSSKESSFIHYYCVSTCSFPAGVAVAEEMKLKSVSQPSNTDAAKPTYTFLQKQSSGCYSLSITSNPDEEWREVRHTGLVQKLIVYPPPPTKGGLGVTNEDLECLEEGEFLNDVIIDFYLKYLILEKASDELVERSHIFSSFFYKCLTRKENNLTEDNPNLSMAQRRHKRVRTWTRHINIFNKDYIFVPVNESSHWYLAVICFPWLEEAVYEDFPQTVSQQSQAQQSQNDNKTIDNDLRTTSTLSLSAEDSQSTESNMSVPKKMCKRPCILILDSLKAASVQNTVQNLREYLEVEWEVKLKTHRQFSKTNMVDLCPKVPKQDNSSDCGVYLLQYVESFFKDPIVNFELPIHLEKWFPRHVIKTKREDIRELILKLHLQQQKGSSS

[16] = target: T5, Sentrin-specific protease 6 (Homo sapiens, UniProt Q9GZR1); assay: SAR Analysis of small molecule inhibitors of Sentrin-specific protease 6 (SENP6) using a Luminescent assay. [Related pubchem assays (depositor defined):AID2582, AID2599]; type: functional
T5 sequence (Q9GZR1 whole entry): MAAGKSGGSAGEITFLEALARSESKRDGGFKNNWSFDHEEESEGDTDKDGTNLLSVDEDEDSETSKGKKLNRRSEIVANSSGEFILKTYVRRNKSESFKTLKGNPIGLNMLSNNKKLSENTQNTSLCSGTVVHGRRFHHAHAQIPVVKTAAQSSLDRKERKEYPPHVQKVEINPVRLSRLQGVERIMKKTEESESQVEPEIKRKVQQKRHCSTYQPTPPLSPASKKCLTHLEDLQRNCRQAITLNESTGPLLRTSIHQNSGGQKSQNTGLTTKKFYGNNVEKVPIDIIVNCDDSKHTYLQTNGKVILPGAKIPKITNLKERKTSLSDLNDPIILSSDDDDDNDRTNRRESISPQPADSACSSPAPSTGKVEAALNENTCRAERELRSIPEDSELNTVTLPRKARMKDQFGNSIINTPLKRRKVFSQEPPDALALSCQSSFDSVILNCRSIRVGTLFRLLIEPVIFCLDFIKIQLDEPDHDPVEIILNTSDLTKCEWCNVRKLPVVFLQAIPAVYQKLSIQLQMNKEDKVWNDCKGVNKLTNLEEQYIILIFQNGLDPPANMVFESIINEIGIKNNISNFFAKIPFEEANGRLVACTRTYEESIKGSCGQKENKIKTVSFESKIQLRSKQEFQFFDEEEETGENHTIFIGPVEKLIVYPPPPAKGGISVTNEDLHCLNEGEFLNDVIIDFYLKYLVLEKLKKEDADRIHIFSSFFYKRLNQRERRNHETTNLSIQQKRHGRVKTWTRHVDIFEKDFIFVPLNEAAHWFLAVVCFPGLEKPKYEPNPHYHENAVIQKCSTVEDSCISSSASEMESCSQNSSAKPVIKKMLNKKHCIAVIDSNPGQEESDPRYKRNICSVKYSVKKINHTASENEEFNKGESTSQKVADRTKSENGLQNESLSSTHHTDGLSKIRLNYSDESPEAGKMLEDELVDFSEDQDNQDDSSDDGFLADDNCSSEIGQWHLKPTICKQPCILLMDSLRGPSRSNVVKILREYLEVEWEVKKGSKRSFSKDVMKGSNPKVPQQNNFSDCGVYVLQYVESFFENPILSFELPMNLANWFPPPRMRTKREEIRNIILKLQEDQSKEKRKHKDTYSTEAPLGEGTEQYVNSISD

P388/ADR = assay: cells; type: functional; conditions: Mus musculus
P388 = assay: cells; type: functional; conditions: Mus musculus
SN12K1 = assay: cells; type: functional; conditions: Homo sapiens

Chain of Photoreceptor-specific nuclear receptor (Q9Y5X4 whole entry, the tested form may be a part): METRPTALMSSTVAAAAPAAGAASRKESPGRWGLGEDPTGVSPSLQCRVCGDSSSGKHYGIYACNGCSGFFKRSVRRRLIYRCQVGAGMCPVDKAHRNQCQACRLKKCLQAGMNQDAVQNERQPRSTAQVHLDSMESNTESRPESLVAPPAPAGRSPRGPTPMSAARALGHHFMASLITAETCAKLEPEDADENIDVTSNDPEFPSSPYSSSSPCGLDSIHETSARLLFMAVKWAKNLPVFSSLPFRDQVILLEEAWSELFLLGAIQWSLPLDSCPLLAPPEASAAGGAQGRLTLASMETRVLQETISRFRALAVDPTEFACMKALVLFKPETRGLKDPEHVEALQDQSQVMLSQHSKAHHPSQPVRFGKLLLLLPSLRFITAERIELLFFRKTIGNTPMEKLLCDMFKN
Chain of SWI/SNF-related matrix-associated actin-dependent regulator of chromatin subfamily A member 2 (P51531 whole entry): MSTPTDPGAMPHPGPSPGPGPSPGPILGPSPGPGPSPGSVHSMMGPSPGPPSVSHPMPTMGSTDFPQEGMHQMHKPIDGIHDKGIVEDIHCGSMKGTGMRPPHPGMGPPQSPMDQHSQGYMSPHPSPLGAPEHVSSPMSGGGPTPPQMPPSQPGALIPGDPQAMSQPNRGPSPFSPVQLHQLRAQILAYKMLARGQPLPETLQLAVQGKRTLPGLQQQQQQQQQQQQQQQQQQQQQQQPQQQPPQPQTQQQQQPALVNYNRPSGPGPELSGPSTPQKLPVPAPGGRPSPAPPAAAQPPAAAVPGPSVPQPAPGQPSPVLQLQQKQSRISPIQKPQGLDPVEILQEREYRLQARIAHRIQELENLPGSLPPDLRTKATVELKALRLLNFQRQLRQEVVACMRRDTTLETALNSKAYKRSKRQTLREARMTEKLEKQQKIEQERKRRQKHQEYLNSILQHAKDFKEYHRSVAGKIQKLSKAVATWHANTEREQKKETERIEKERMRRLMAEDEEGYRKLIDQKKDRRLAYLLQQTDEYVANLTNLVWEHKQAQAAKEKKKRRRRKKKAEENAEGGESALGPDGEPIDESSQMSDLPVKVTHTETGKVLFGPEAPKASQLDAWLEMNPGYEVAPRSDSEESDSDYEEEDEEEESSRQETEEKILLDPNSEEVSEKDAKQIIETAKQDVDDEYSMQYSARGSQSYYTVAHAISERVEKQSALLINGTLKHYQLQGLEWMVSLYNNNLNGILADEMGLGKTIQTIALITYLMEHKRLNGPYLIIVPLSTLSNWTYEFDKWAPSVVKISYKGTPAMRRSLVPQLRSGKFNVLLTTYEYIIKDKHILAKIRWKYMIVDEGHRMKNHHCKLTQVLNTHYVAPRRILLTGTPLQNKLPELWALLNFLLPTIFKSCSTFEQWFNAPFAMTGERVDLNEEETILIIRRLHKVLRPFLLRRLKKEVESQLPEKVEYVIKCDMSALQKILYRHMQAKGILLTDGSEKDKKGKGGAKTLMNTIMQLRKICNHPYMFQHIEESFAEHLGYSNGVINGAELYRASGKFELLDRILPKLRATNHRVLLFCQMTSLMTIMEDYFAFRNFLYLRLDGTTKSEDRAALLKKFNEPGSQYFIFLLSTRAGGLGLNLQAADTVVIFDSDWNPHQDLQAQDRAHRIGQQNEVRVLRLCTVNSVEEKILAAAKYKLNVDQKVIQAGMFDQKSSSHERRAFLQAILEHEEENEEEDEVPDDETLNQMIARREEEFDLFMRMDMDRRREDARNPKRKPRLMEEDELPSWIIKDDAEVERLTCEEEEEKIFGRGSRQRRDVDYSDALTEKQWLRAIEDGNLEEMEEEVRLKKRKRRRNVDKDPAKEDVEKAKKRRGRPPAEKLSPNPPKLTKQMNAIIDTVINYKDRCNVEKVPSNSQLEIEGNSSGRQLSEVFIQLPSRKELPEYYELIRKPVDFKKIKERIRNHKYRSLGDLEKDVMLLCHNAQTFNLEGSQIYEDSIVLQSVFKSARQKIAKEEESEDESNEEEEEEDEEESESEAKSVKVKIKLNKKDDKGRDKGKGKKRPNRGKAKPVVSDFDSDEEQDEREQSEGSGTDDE

Compound: Cc1n[nH]c(NCCO)c1[N+](=O)[O-]
- IC50 (Galanin receptor type 3): > 29.9 µM (inactive)
- EC50 (cells): > 29.9 µM (inactive)

Compound: O=C(c1noc2c1CCc1ccccc1-2)N1CCOCC1
- EC50 [1]: > 91.2 µM (inactive)
- EC50 [2]: > 91.2 µM (inactive)

Compound: COc1cccc(CNCCc2c[nH]c3ccccc23)c1OCc1ccccc1F
- AC50 (INS1): 8.08 µM (active)
- AC50 [3]: 23.2 µM (active)
- AC50 [4]: 7.5 µM (active)
- EC50 [5]: 5.56 µM (active)
- AC50 [6]: 9.93 µM (active)
- EC50 [7]: 1.5 µM (active)
- EC50 [8]: > 150 µM (inconclusive)
- AC50 [9]: 3.52 µM (active)
- AC50 [10]: 25.6 µM (active)
- EC50 [11]: 4.65 µM (active)

Compound: Nc1ccc(O)cc1C(=O)OCC(=O)c1ccc(C2CCCCC2)cc1
- AC50 [3]: 40.9 µM (active)
- AC50 [4]: 2.09 µM (active)
- AC50 [6]: 2.3 µM (active)
- AC50 [10]: 0.865 µM (active)

- IC50 [12]: 4.43 µM (active)
Compound: O=C(Nc1ccc(Cn2cccn2)cc1)c1ccc(COc2ccccc2Br)cc1

Compound: CC1=Nn2c(nnc2-c2ccccn2)SC1
- AC50 [13]: 84.7 µM (active)

Compound: COc1ccc(OC)c(-c2cc(C(=O)N3CCN(c4ncccn4)CC3)c3ccccc3n2)c1
- AC50 [13]: 127 µM (active)

- IC50 [12]: 1.25 µM (active)
Compound: Cc1onc(-c2ccccc2Cl)c1C(=O)Nc1nc2c(s1)CCCC2

- IC50 (Caspase-3): > 99 µM (inactive)
- IC50 [15]: > 99 µM (inactive)
- IC50 [16]: > 99 µM (inactive)
Compound: COc1ccc(/C=N/Nc2nc(NCc3ccccc3)nc(N(C)C)n2)cc1Br
- IC50 [14]: > 99 µM (inactive)

- IC50 (Caspase-3): > 99 µM (inactive)
- IC50 [15]: 32.9 µM (active)
- IC50 [16]: 11 µM (active)
Compound: C(/C=C/c1ccccc1)=N/Nc1cc(N2CCCC2)nc(N2CCCC2)n1
- IC50 [14]: 43.5 µM (active)

- IC50 (Caspase-3): > 99 µM (inactive)
- IC50 [15]: > 99 µM (inactive)
- IC50 [16]: > 99 µM (inactive)
Compound: CCOc1ccc(C(=O)Nc2ccc3ccccc3c2)cc1Br
- IC50 [14]: > 99 µM (inactive)

Compound: CN(C)CCSc1nccc(-c2ccc(-c3ccnc(SCCN(C)C)n3)s2)n1
- GI50 (P388/ADR): 2.35 µM (inactive)
- GI50 (P388): 1.04 µM (active)
- GI50 (SN12K1): 11.1 µM (inactive)

Compound: COc1nc(N)nc2nc[nH]c12
- GI50 (P388/ADR): 265 µM (inactive)
- GI50 (P388): 339 µM (inactive)
- GI50 (SN12K1): 383 µM (inactive)

Compound: COc1cc2c(cc1OC)C(OC)N(C)c1c-2ccc2cc3c(cc12)OCO3 (stereo unspecified)
- GI50 (P388/ADR): 2.58 µM (inactive)
- GI50 (P388): 0.667 µM (active)
- GI50 (SN12K1): 0.652 µM (active)

Compound: NC1(C(=O)O)CCc2ccc(N(CCCl)CCCl)cc2C1 (stereo unspecified)
- GI50 (P388/ADR): 10.9 µM (inactive)
- GI50 (P388): 1.67 µM (inactive)
- GI50 (SN12K1): 64.1 µM (inactive)
